# Numbered stars: 1 amine (or outer) side, 2 acyl side, 3 side chain; on linkers, the order of the positions; unused ones are H or OH. Bridge positions count the residues as written; N and C are the ends. Square brackets hold non-standard residues; d marks the D form. Peptide text beside a SMILES is read from it. I, II: the chains in the order shown. Actinocin(9to1) = Cc1c2oc3c(C)ccc(C(=O)[*:1])c3nc-2c(C(=O)[*:2])c(N)c1=O; NMeV = CN[C@H](C(=O)O)C(C)C; Sar = CNCC(=O)O
# Experiments:
# [1] = test system: reconstituted mammalian transcription system (Pol II, general transcription factors, Mediator, Gal4); experiment: Reconstituted in vitro transcription assay (droplets and qRT-PCR output); format: biochemical; details: 2 mM NTPs, 200 mM NaCl, 500 nM heparin, spermine at concentrations predicted to balance charge; for partitioning of template DNA into droplets: Cy3-labeled template DNA; for droplet area: added to the transcription reaction; for transcription (levels of RNA synthesis): qRT-PCR of template-derived RNA
# Protocol: For the size analysis of droplets formed in the reconstituted transcription assays (FIG. 3), brightfield images were subtracted by a median-filtered image (px=21), and droplets were manually segmented and their areas measured using ImageJ.
# The reconstituted in vitro transcription by RNA polymerase II was performed as previously described (Flores et al., 1992; LeRoy et al., 2008, 2019; Orphanides et al., 1998) with some modifications. A 1000 bp template DNA (unlabeled or Cy-3 labeled at 3′ end) containing adenovirus major late promoter, five Gal4 binding sites, TATA-box sequence and 561 bp from eGFP sequence was used. First, pre-initiation complex was assembled at RT for 15 min by mixing the following components: 50 nM RNA polymerase II enriched for hypophosphorylated CTD, 50 nM general transcription factors (TFIIA-B-D-E-F-H), and 5.75 nM template DNA, in a buffer containing 10 mM HEPES pH 7.5, 65 mM NaCl, 6.25 mM MgCl2, and 6.25 mM Sodium butyrate. Next, 10 nM Mediator complex and 10 nM GAL4 (Gal4 DNA binding domain fused to activation domain of VP16) were added to the reaction. Last, nucleotide mix containing 0.375 mM ATP, CTP, UTP, GTP (Invitrogen), 0.01 U RNase Inhibitor (Invitrogen), 1.25% PEG-8000 were added together with one of the following: a) various amounts of purified exogenous Pou5f1 RNA (0-500 nM) b) spermine (Sigma, S4264) c) extra NTPs (Invitrogen) d) extra NaCl e) heparin (Sigma, H3393). The reaction was incubated at 30° C. for 2 hr. RNA isolation was performed using RNeasy kit (Qiagen) by including a spike-in RNA control and an RNA carrier. Purified RNAs were treated with ezDNase (Invitrogen) for 30 min at 37° C. to eliminate the template DNA. Reverse transcription was performed using Superscript IV (Invitrogen) and qPCR was performed with SYBR Green Real Time PCR master mix (Invitrogen) to quantify the template derived transcriptional output. The Ct values of the reactions were normalized to the spike-in RNA control. The concentration of template derived transcriptional output was calculated by using a standard curve of qRT-PCR Ct values generated by known amounts of serially diluted GFP RNA.
# To visualize the droplets formed in the reconstituted transcription assay, using a micropipette (2-20 μL), 5 μL of the reactions were loaded onto a homemade chamber, which was prepared by attaching coverslips to a glass slide by parallel strips of double-sided tape (Sabari et al., 2018). After the droplets were settled on the glass coverslip, the images were collected by using RPI Spinning Disk confocal microscope with a 100× objective. To account for camera artifacts in the images, brightfield Images of droplets from reconstituted assays were subjected to a white tophat filter with a disk element radius of 21 using the MorphoLib plugin in ImageJ, then a Gaussian filter (sigma=1) was applied.
# MED1-IDR = molecular target: T1, MED1-IDR (Homo sapiens, UniProt Q15648); experiment: In vitro droplet assay with MED1-IDR-GFP; format: biochemical; details: alternative polyanions instead of RNA
# T1 construct: Amino acids included; 6xHIS; made in house; host or cells: LOBSTR cells (E. coli), pET plasmid, Ni-NTA purification
# T1 sequence (Q15648 948-1573): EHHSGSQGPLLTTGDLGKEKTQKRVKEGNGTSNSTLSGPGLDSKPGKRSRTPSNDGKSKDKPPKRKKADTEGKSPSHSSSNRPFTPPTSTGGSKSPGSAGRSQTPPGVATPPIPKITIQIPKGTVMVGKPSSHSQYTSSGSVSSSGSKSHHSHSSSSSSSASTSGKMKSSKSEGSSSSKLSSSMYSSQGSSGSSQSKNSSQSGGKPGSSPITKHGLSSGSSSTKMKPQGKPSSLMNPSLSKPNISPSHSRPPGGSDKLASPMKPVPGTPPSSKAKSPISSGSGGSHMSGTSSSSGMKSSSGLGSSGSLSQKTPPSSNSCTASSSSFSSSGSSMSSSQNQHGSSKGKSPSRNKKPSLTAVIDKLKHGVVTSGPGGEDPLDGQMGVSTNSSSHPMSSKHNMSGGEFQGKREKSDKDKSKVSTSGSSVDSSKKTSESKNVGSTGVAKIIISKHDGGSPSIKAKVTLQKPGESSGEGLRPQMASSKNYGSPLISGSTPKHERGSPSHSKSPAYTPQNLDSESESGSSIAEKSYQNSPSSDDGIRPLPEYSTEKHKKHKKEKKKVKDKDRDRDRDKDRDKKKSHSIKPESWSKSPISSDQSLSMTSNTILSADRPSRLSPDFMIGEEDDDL
# Protocol: Charge-balance calculations were performed (FIGS. 2, 9, 10 and 11) employing the following method. Net protein charge per molecule was calculated as Cp=#(R, K)−#(D, E) for the relevant sequence including the GFP tag. RNA charge per molecule was calculated as Cr=−(# […]), assuming an approximate charge of −1 per nucleotide (Lin et al., 2019). Next, the charge balance ratio was computed at a particular RNA and protein concentration as:
# The effective concentration of MED1-IDR in the assays was 1000 nM. The results were not quantitatively affected by inclusion/exclusion of the partial charge on Histidine residues, partly due to their low frequency on the protein sequences. For Heparin, a charge of roughly −3 per monomer was employed (Lin et al., 2020) and for single-stranded DNA, a charge of −1 per nt was employed. The fit is quantified by calculating Pearson correlation coefficient (r) was calculated between the median droplet partition value at different concentrations and the relevant charge-balance ratios and reported in FIGS. 2, 9, 10, and 11. A higher correlation implies that experimental data follow a similar qualitative trend as the estimated charge-balance curves. The code for performing these calculations are available at: […]
# [2] = test system: Med1-GFP condensates in mESCs; experiment: Condensate size in Med1-GFP mESCs after transcription inhibition; format: cell-based, mouse; details: 30 minutes; 100 μM DRB or 1 μM Actinomycin-D; 3D super-resolution microscopy
# Protocol: (§1) For small molecule inhibition experiments, cells were treated with 100 μM DRB (Sigma), or 1 μM Actinomycin-D (Sigma) in 2i media (detailed above) for 30 minutes, then imaged. For wash-out experiments, media was replaced with fresh 2i media and cells were allowed to recover for 1 hour, then the cells were imaged.
# Cells with endogenously-tagged Med1-GFP (Sabari et al., 2018) were plated on glass-bottom dishes (Mattek) coated with poly-L-ornithine (Sigma) and laminin (ThermoFisher). Mock (DMSO) and treated cells were imaged on a LSM 880 Confocal Microscope with Airyscan to obtain super-resolution z-stacks for at least 8 different fields containing multiple cells. For quantification, a manual threshold was applied equally across all conditions to remove background, and the size of Med1-GFP puncta was quantified in 3D using the 3D object counter plugin (Fiji/ImageJ).
# [3] = test system: Med19 condensates in mESCs; experiment: Condensate lifetime in Med19-Halo mESCs by tcPALM; format: cell-based, mouse
# Protocol: as §1
# HaloTag was endogenously knocked into 5′-end of Med19 via homology-directed repair (HDR) in mouse embryonic stem cells (R1 mESCs). Three single-guide RNAs (sgRNAs) targeting+/−100 bps from the start codons of Med19 gene were designed using the web-based CRISPR Design tool (http://crispr.mit.edu) and integrated into a Streptococcus pyogenes Cas9 vector (Addgene #62988) for standard CRISPR/Cas9 editing. Single positive colonies were sorted by fluorescence-activated cell sorting (FACS) and validated under the microscope. […]
# Photo-activation localization microscopy (PALM) imaging was performed using a Nikon Eclipse Ti microscope with a 100× oil immersion objective (NA 1.40) (Nikon, Tokyo, Japan). […] Med19-Halo cluster lifetimes were calculated as previously described using the qSR software (dark time tolerance=20 frames, min cluster size=50) (Andrews et al., 2018), and a cumulative distribution was generated using Prism software (GraphPad).
# Mediator complex = test system: T2, Mediator complex; experiment: In vitro droplet assay with purified Mediator complex; format: biochemical, human; details: 6-400 nM RNA added to 200 nM purified Mediator complex
# T2 construct: Purification of Human Mediator Complex from HeLa Nuclear Extract; endogenous in cells; host or cells: HeLa nuclear extract, multi-step column purification
# Protocol: HeLa nuclear protein extract (4 g) was prepared as described in (Dignam et al., 1983). Nuclear extract was dialyzed against BC100: BC buffer, pH 7.5+100 mM KCl (20 mM Tris-HCl, 20 mM B-Mercaptoethanol, 0.2 mM PMSF, 0.2 mM EDTA, 10% glycerol (v/v) and 100 mM KCl). The extract was fractionated on a phosphocellulose column (P11) with BC buffer containing 0.1, 0.3, 0.5 and 1M KCl. The Mediator complex eluted in the 0.5M KCL (BC500) fraction. This fraction was dialyzed against BC100 and loaded on a DEAE Cellulose column and sequentially fractionated with BC buffer containing 0.1, 0.3 and 0.5M KCl. […] This fraction was then directly loaded onto a DEAE-5 PW column (TSK) and eluted with a linear KCl gradient from 0.1 to 1M KCl in BC buffer. The Mediator complex eluted between 0.4 and 0.6M KCl. The fractions containing Mediator were pooled and dialyzed against BD700: BD buffer, (20 mM Hepes pH 7.5, 20 mM β-Mercaptoethanol, 0.2 mM PMSF, 0.2 mM EDTA, 10% glycerol, and 700 mM (NH4)2SO4). This fraction was then loaded onto a Phenyl-Sepharose Hydrophobic Interaction Chromatography (HIC) column and eluted with a linear reverse gradient from 0.7 to 0.025M (NH4)2SO4 in BD buffer. The Mediator complex eluted between 0.3 and 0.1M (NH4)2SO4. […]
Molecule,partitioning of template DNA into droplets [1],droplet area [1],transcription (levels of RNA synthesis) [1],also measured
heparin,reductions,reductions,reductions,fit of MED1-IDR partitioning to the charge balance model (MED1-IDR): charge balance model also held
"Cc1c2oc3c(C)ccc(C(=O)N[C@@H]4C(=O)N[C@H](C(C)C)C(=O)N5CCC[C@H]5C(=O)N(C)CC(=O)N(C)[C@@H](C(C)C)C(=O)O[C@@H]4C)c3nc-2c(C(=O)N[C@@H]2C(=O)N[C@H](C(C)C)C(=O)N3CCC[C@H]3C(=O)N(C)CC(=O)N(C)[C@@H](C(C)C)C(=O)O[C@@H]2C)c(N)c1=O [Actinomycin-D] (I: T[dV]P[Sar][NMeV] / II: T[dV]P[Sar][NMeV]; ester I:1-I:C, II:1-II:C; linker I:N-II:N via Actinocin(9to1))",,,,increase in volume of Med1-GFP condensates [2]: ~2 fold
NCCCNCCCCNCCCN [spermine],increased,increased,increased,
OC[C@H]1O[C@@H](n2cnc3cc(Cl)c(Cl)cc32)[C@H](O)[C@@H]1O [DRB],,,,"lifetime of Med19 condensates versus mock-treated cells ([3]; 100 μM DRB, 30 minutes, tcPALM): significantly longer lifetimes; lifetime of Med19 condensates after wash with fresh media ([3]; DRB-treated cells washed, 1 hour recovery): recovered to those of the mock-treated condition; increase in volume of Med1-GFP condensates [2]: ~2 fold"
[Cl-].[Na+] [NaCl],reductions,reductions,reductions,
"Trim28 enhancer RNA: enhancer RNA transcribed from the Trim28 super-enhancer, 594 nt, SEQ ID NO: 46 (nucleic acid, 47) AAATCTTGGAGAGAGTAGGACCTGAGCTGTTTCCTATTTCTACTACTTCCATAGACATCCATGGGTCTCCTTTGGTTCTTACCTTAAACTGCAGTTCTAGAGGCTCTTCTGGGGTTGTAAACTGCCCTTCCCCAACTCAGGAGCTCCCATTCCCTCCCCTTCCTAAACTGGCCCTACTTGTTCGCTCTACTTTATCTTGCCAGGGGTTGTAACAGCCTCCAATCTGTCTTGGATCAGGAAGCAGTTTCCATGGGGTATTTTAAGTGTAAGTTCCCCGGTGAAATGGAAACAAAAAGAATAAGGTATTCTGGGGACAGTGTAGGCCCACTAGGGTGTAGCTTGTTTTGTAAACACAGGACCTGAGTTTTGGACTTTGCCCTGGATTGTACCTGTCCCAGTGGGTTACCTTAGATGACACTAGCTTCATAATGCAAGAGGAGGTTAAGATGCTGGCTAGCGTTACCCACTTTGAAGGTACTGGAAAAGGAAGACCTGATTTACCCAAAAGAGGGAGATCTCTGTGCTTCTACCGCTTTAATTTTTTTTTTCTTTTTTTAAATATTTTTGCAGGACTGGTCACTGTAACTTTTTCCC",,,,RNA concentration at which droplet sizes peaked (Mediator complex): 100 nM; effect on the size of Mediator/RNA droplets (Mediator complex): dose-dependent effect
"ssDNA: single-stranded DNA, 117 nt, SEQ ID NO: 51, alternative polyanion (nucleic acid, DNA, backbone and methylation of C not given here) DNA: GGTTCTGCCGCAGGTGGATCCGGTATGTCCACCGCCACGACAGTCGCCCCCGCGGGGATCCCGGCGACCCCGGGCCCTGTGAACCCACCCCCCCCGGAGGTCTCCAACCCCAGCAAG",,,,fit of MED1-IDR partitioning to the charge balance model (MED1-IDR): charge balance model also held

# Source: patent US20240309365A1, “MODULATING TRANSCRIPTIONAL CONDENSATES” (Whitehead Institute for Biomedical Research, priority 2020, published 2024)
